Assay results taken from patent US20160137639A1, “TRIAZOLE-ISOXAZOLE COMPOUND AND MEDICAL USE THEREOF” (JAPAN TOBACCO INC., priority 2012, published 2016).
Like-named read-outs stand apart in the source and are kept apart here.

Legend:
human RORγ = molecular target: T1, human RORγ (Homo sapiens, UniProt P51449); test: Luciferase reporter gene assay of inhibitory effect against RORγ transcriptional activity (GAL4-hRORγ plasmid in CHO cells); type: cell-based
T1 construct: human, NM_005060.3 and from Ser253 to Lys518; expressed in transfected cells; host or cells: CHO cells (transient co-transfection with pG5-Luc reporter)
T1 sequence (P51449 253-518): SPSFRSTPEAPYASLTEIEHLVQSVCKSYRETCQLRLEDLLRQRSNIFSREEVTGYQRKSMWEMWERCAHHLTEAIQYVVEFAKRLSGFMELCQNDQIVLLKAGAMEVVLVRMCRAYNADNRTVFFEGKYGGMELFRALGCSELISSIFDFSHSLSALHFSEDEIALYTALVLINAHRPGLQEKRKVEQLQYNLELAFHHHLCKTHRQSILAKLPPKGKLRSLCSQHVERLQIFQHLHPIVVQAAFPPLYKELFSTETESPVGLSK

mouse RORγ = molecular target: T2, mouse RORγ (Mus musculus, UniProt P51450); test: Luciferase reporter gene assay of inhibitory effect against RORγ transcriptional activity (GAL4-mRORγ plasmid in CHO cells); type: cell-based
T2 construct: mouse, NM_011281.2 and from Ile251 to Lys516; expressed in transfected cells; host or cells: CHO cells (transient co-transfection with pG5-Luc reporter)
T2 sequence (P51450 251-516): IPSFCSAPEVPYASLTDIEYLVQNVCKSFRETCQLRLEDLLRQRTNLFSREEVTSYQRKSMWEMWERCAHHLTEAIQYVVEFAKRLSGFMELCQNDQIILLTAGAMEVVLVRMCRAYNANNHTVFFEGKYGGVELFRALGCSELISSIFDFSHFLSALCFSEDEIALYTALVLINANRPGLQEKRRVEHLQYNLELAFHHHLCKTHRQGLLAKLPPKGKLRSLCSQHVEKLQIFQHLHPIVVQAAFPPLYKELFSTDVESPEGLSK
In short: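 Readout is intracellular luciferase after 2-day compound exposure (8 concentrations, 0.1% DMSO) in CHO cells expressing GAL4 fused to mouse RORγ LBD residues Ile251–Lys516 plus pG5-Luc reporter. EC50 fitted from %-of-control; points showing resazurin-detected cytotoxicity dropped.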

Structure (SMILES)	EC50 (human RORγ; read-out: LUC EC50 hRORg) [µM]	EC50 (mouse RORγ; read-out: LUC EC50 mRORg) [µM]	EC50 (human RORγ; read-out: LUC EC50 (μM) hRORg) [µM]	EC50 (mouse RORγ; read-out: LUC EC50 (μM) mRORg) [µM]
Cc1ccc(NC(=O)C[C@H](CC#N)c2noc([C@H]3C[C@@H](CC(C)C)C3)c2C2CC2)c(C)c1 [Example F-638]	< 3	< 3		
CC(=O)OCCC1(c2onc(CCC(=O)Nc3ccc(C)cc3Cl)c2C2CC2)CC(CC(C)(C)C)C1 (mixture of isomers) [Example F-737]	> 3	> 3		
O=C(CCc1nnc(C2Cc3ccccc3C2)n1C1CC1)Nc1cccc2ccccc12 [Example F-4]			< 3	< 3
CCC[C@@H](CC(=O)Nc1ccc(C)cc1C)c1nnc(CCCC(C)(C)C)n1C1CC1 [Example F-528]	< 3	< 3		
CCn1c(CCC(=O)Nc2cccc3ccccc23)nnc1CC1CCCCC1 [Example F-17]			> 3	< 3
C=CCC(CC(=O)Nc1ccc(C)cc1C)c1nnc(CCCC(C)(C)C)n1C1CC1 (racemic) [Example F-306]			< 3	< 3
Cc1cc(Cl)ccc1NC(=O)C[C@H](CC(C)C)c1nnc(-c2cc(CC(C)(C)C)on2)n1C1CC1 [Example F-626]	< 3	< 3		
Cc1ccc(NC(=O)CCc2nnc(C3CC4(CCCC4)C3)n2C2CC2)c(C)c1 [Example F-420]			< 3	< 3
CCn1c(C2Cc3ccccc3C2)nnc1[C@H]1C[C@@H]1C(=O)Nc1cccc2ccccc12 (racemic) [Example F-26]			> 3	> 3
COc1cc(C)ccc1CNC(=O)[C@H]1CN(C(C)=O)C[C@@H]1c1nnc(CCC2CCCCC2)n1C1CC1 (racemic) [Example F-173]			< 3	< 3
Cc1ccc(NC(=O)CCc2nnc(CCC3(C)CCCCC3)n2C2CC2)c(C)c1 [Example F-269]			< 3	< 3
CC(=O)N1C[C@H](C(=O)Nc2ccc(C)cc2C)[C@@H](c2nnc(CCCC(C)(C)C)n2CC(F)(F)F)C1 (racemic) [Example F-356]			< 3	< 3
C=CCC(CC(=O)Nc1cccc(Cl)c1C)c1nnc(CCCC(C)C)n1C1CC1 (racemic) [Example F-197]			< 3	< 3
Cc1ccc(NC(=O)C[C@H](CCC(=O)O)c2noc3c2C(C)CCC3CCC(C)C)c(Cl)c1 (single isomer, unassigned) [Example F-695]	> 3	< 3		
Cc1ccc(NC(=O)CC(CCCO)c2nnc(CCCC(C)C)n2C2CC2)c(C)c1 (racemic) [Example F-214]			< 3	< 3
Cc1ccc(NC(=O)CCc2noc([C@H]3C[C@@H](CC(C)(C)C)C3)c2C2CC2)c(Cl)c1 [Example F-719]	< 3	< 3		
CCn1c(CCC(=O)Nc2cccc(Cl)c2C)nnc1CCC(C)(C)C [Example F-53]			> 3	< 3
CCn1c(CCC2CCCCC2)nnc1[C@H]1CCCC[C@@H]1C(=O)Nc1cccc2ccccc12 (racemic) [Example F-35]			< 3	< 3
Cc1ccc(NC(=O)C[C@H](C[C@@H](C)O)c2nnc([C@H]3C[C@@H](CC(C)C)C3)n2C2CC2)c(C)c1 [Example F-560]	< 3	< 3		
CC(C)CCc1nnc(CCC(=O)NC[C@H](O)c2ccccc2)n1C1CC1 [Example F-103]			> 3	> 3
Cc1cc(Cl)ccc1NC(=O)C[C@H](CCO)c1nnc(-c2cc(CC(C)(C)C)on2)n1C1CC1 [Example F-608]	< 3	< 3		

Structure (SMILES)	EC50 (human RORγ; read-out: LUC EC50 hRORg) [µM]	EC50 (mouse RORγ; read-out: LUC EC50 mRORg) [µM]	EC50 (human RORγ; read-out: LUC EC50 (μM) hRORg) [µM]	EC50 (mouse RORγ; read-out: LUC EC50 (μM) mRORg) [µM]
Cc1ccc(NC(=O)C[C@H](CCC(=O)O)c2noc(-c3cc(CCC(C)C)on3)c2C2CC2)c(Cl)c1 [Example E-05]			< 3	< 3
Cc1ccc(NC(=O)C[C@H](CCC(=O)O)c2noc3c2C(C)CCC3CCC(C)C)c(Cl)c1 (single isomer, unassigned) [Example F-693]	< 3	< 3		
CCn1c(CCC(=O)Nc2cc(C)cc(C)c2)nnc1C1Cc2ccccc2C1 [Example F-16]			> 3	< 3
C=CCC(CC(=O)Nc1cccc(Cl)c1C)c1nnc(CCC(C)C)n1C1CC1 (racemic) [Example F-193]			< 3	< 3
Cc1ccc(NC(=O)C[C@H](CC(F)(F)F)c2nnc(-c3cc(CC(C)C)on3)n2C2CC2)c(C)c1 [Example F-567]	< 3	< 3		
Cc1ccc(NC(=O)C[C@H](CCO)c2nnc([C@H]3C[C@@H](CC(C)(C)C)C3)n2C2CC2)c(C)c1 [Example F-561]	< 3	< 3		
CC(=O)N(C)[C@@H](CC(=O)Nc1ccc(C)cc1C)c1nnc(CCCC(C)(C)C)n1C1CC1 [Example F-354]			< 3	< 3
Cc1c(Cl)cccc1NC(=O)CCc1nnc(CCC(C)C)n1C1CC1 [Example F-55]			> 3	< 3
CC(C)(C[C@H]1C[C@@H](c2onc(C(CCC(=O)O)CC(=O)Nc3ccc(C(=O)O)cc3Cl)c2C2CC2)C1)C(=O)O (stereo partly drawn) [Example F-746]	> 3	> 3		
Cc1noc(NC(=O)CCc2nnc(CCC(C)C)n2C2CC2)c1C [Example F-106]			> 3	> 3
Cc1ccc(NC(=O)C[C@H](CCC(=O)O)c2nnn([C@H]3C[C@@H](CC(C)(C)C(C)C)C3)c2C2CC2)c(F)c1 [Example F-706]	< 3	< 3		
Cc1ccc(NC(=O)[C@@H](CCC(=O)O)Cc2noc([C@H]3C[C@@H](CC(C)(C)C)C3)c2C2CC2)c(Cl)c1 [Example F-684, (S)-4-(2-chloro-4-methyl-phenylcarbamoyl)-5-{4-cyclopropyl-5-[3-(2,2-dimethyl-propyl)-cyclobutyl]-isoxazol-3-yl}-pentanoic acid]	< 3	< 3		
Cc1ccc(NC(=O)CC(CCCO)c2nnc(CCCC(C)(C)C)n2CC(F)(F)F)c(C)c1 (racemic) [Example F-401]			< 3	< 3
Cc1ccc(NC(=O)C[C@H](CCC(=O)O)c2noc(-c3cc(C(F)(F)C(C)C)on3)c2C2CC2)c(Cl)c1 [Example E-20]			< 3	< 3
Cc1ccc(NC(=O)C[C@H](OC(C)C)c2nnc(-c3cc(CC(C)C)on3)n2C2CC2)c(C)c1 [Example F-575]	< 3	< 3		
CC(C)(C)C[C@H]1C[C@@H](c2onc([C@@H](CCC(=O)O)CC(=O)NS(=O)(=O)c3ccccc3)c2C2CC2)C1 [Example F-723]	> 3	> 3		
CC(C)(C)C(F)(F)c1cc(-c2onc([C@@H](CCC(=O)O)CC(=O)Nc3ccc(F)cc3Cl)c2C2CC2)no1 [Example E-48]			< 3	< 3
CC(=O)N1CC([C@@H](CC(=O)Nc2ccc(C)cc2C)c2nnc([C@H]3C[C@@H](CC(C)C)C3)n2C2CC2)C1 [Example F-466]			< 3	< 3
Cc1ccc(NC(=O)CC(CCOCc2ccccc2)c2nnc(-c3cc(CC(C)C)on3)n2C2CC2)c(C)c1 (racemic) [Example F-455]			> 3	< 3
Cc1ccc(NC(=O)[C@H]2C(=O)N(C)C[C@@H]2c2nnc(CCCC(C)(C)C)n2C2CC2)c(C)c1 [Example F-302]			< 3	< 3
COC(=O)C(C)(C)CCCc1nnc(CCC(=O)Nc2cccc(Cl)c2C)n1C1CC1 [Example F-230]			< 3	< 3
